Assay results taken from US11505553B2, “2-(Het)aryl-substituted fused heterocycle derivatives as pesticides” (Bayer Aktiengesellschaft, priority 2017, dated 2022).
Read-outs that look alike come from different tables or passages of the source.

Assays:
Type in all cases: in vivo
[1] = test system: Ctenocephalides felis; assay: Ctenocephalides felis oral test; details: 48 h, application rate 100 ppm in citrated cattle blood, after 2 days, read-out: efficacy (kill)
Procedure: Solvent: dimethyl sulfoxide To produce a suitable active ingredient formulation, 10 mg of active ingredient are mixed with 0.5 ml of dimethyl sulfoxide. Dilution with citrated cattle blood gives the desired concentration. About 20 unfed adult cat fleas (Ctenocephalides felis) are placed into a chamber which is closed at the top and bottom with gauze. A metal cylinder whose bottom end is closed with parafilm is placed onto the chamber. The cylinder contains the blood/active ingredient formulation, which can be imbibed by the fleas through the parafilm membrane. After 2 days, the kill in % is determined. 100% means that all of the fleas have been killed; 0% means that none of the fleas have been killed.

[2] = test system: Myzus persicae; assay: Myzus persicae oral test; details: 120 h, after 5 days, read-out: efficacy; for pest or weed control at 4 ppm: application rate 4 ppm; for pest or weed control at 0.8 ppm: application rate 0.8 ppm
Procedure: Solvent: 100 parts by weight of acetone To produce a suitable active ingredient formulation, 1 part by weight of active ingredient is dissolved with the stated parts by weight of solvent and made up to the desired concentration with water. 50 μl of the active ingredient preparation are transferred into microtitre plates and made up to a final volume of 200 μl with 150 μl of IPL41 insect medium (33%+15% sugar). Subsequently, the plates are sealed with parafilm, which a mixed population of green peach aphids (Myzus persicae) within a second microtitre plate is able to puncture and imbibe the solution. After 5 days, the efficacy in % is determined. 100% means that all the aphids have been killed; 0% means that no aphids have been killed.

[3] = test system: Myzus persicae; assay: Myzus persicae spray test; details: foliar, 120 h, Chinese cabbage leaf discs, after 5 days, read-out: efficacy; for pest or weed control at 100 g/ha: application rate 100 g/ha
Procedure: (§1) Solvent: 78 parts by weight of acetone • • 1.5 parts by weight of dimethylformamide Emulsifier: alkylaryl polyglycol ether To produce a suitable active ingredient formulation, 1 part by weight of active ingredient is dissolved with the specified parts by weight of solvent and made up to the desired concentration with water containing an emulsifier concentration of 1000 ppm. To produce further test concentrations, the formulation is diluted with emulsifier-containing water. Discs of Chinese cabbage leaves (Brassica pekinensis) infested by all stages of the green peach aphid (Myzus persicae) are sprayed with an active ingredient formulation of the desired concentration. After 5 days, the efficacy in % is determined. 100% means that all the aphids have been killed; 0% means that no aphids have been killed.

[4] = test system: Ctenocephalides felis; assay: Ctenocephalides felis in vitro contact test with adult cat fleas; details: application rate 5 μg/cm^2 (=500 g/ha), after 48 h, adult cat fleas dead or moribund, read-out: efficacy
Procedure: For the coating of the test tubes, 9 mg of active ingredient are first dissolved in 1 ml of acetone p.a. and then diluted to the desired concentration with acetone p.a. 250 μl of the solution are distributed homogeneously on the inner walls and the base of a 25 ml glass tube by turning and rocking on an orbital shaker (rocking rotation at 30 rpm for 2 h). With 900 ppm of active ingredient solution and internal surface area 44.7 cm^2, given homogeneous distribution, an area-based dose of 5 μg/cm^2 is achieved. After the solvent has evaporated off, the tubes are populated with 5-10 adult cat fleas (Ctenocephalides felis), sealed with a perforated plastic lid and incubated in a horizontal position at room temperature and ambient humidity. After 48 h, efficacy is determined. To this end, the tubes are stood upright and the fleas are knocked to the base of the tube. Fleas which remain motionless at the base or move in an uncoordinated manner are considered to be dead or moribund. […] 100% efficacy means that all the fleas were dead or moribund. 0% efficacy means that no fleas were harmed.

[5] = test system: Myzus persicae; assay: Myzus persicae spray test (MYZUPE), contrastive examples; details: 120 h, 5 dat, read-out: % efficacy
Procedure: as §1, with “78.0” for “78”, “chinese” for “Chinese”, “the desired time,” for “5 days,”, “all” for “all the”

[6] = test system: Nilaparvata lugens; assay: Nilaparvata lugens spray test (NILALU); details: 96 h, 4 dat, read-out: % efficacy
Procedure: Solvent: 52.5 parts by weight of acetone • 7 parts by weight of dimethylformamide
Emulsifier: alkylaryl polyglycol ether
To produce an appropriate active ingredient formulation, 1 part by weight of active ingredient is dissolved with the stated parts by weight of solvent and made up with water containing an emulsifier concentration of 1000 ppm until the desired concentration is attained. For production of further test concentrations, the mixture is diluted with emulsifier-containing water. If addition of ammonium salts or/and penetrants is required, these are each added to the preparation solution in a concentration of 1000 ppm.
Rice plants (Oryza sativa) are sprayed with an active ingredient formulation of the desired concentration and then populated with larvae of the rice cicada (Nilaparvata lugens).
After the desired time, the efficacy in % is determined. 100% means that all rice cicadas have been killed; 0% means that no rice cicadas have been killed.

[7] = test system: Myzus persicae; assay: Myzus persicae drench test (MYZUPE D); details: soil, 240 h, 10 dat, read-out: % efficacy
Procedure: Solvent: 7 parts by weight of dimethylformamide Emulsifier: 2 parts by weight of alkylaryl polyglycol ether To produce an appropriate active ingredient formulation, 1 part by weight of active ingredient is mixed with the stated amounts of solvent and emulsifier, and the concentrate is diluted with water to the desired concentration, it being necessary to take into account soil volume into which drenching is effected. It should be ensured that a concentration of 40 ppm of emulsifier in the soil is not exceeded. For production of further test concentrations, the mixture is diluted with water. Savoy cabbage plants (Brassica oleracea) in earth pots, infested by all stages of the green peach aphid (Myzus persicae), are drenched with an active ingredient formulation of the desired concentration. After the desired time, the efficacy in % is determined. 100% means that all aphids have been killed; 0% means that no aphids have been killed.

[8] = test system: Nilaparvata lugens; assay: Nilaparvata lugens test (NILALU S); details: read-out: % efficacy
Procedure: Solvent: 14 parts by weight of dimethylformamide Emulsifier: 2 parts by weight of alkylaryl polyglycol ether To produce an appropriate active ingredient formulation, 1 part by weight of active ingredient is dissolved with the stated parts by weight of solvent and emulsifier and made up with water until the desired concentration is attained. For production of further test concentrations, the mixture is diluted with water. If addition of ammonium salts or/and penetrants (rapeseed oil methyl ester) is required, these are each pipetted into the finished preparation solution in a concentration of 1000 ppm after the dilution. Rice plants (Oryza sativa, var. Balilla) are treated by spraying with the active ingredient formulation in the desired concentration and then populated with L3 larvae of the brown planthopper (Nilaparvata lugens). After the desired time, the kill in % is determined. 100% means that all planthoppers have been killed and 0%, means that no planthoppers have been killed.

[9] = test system: Myzus persicae; assay: Myzus persicae spray test (MYZUPE S), bell pepper plants; details: 144 h, 6 dat, read-out: % efficacy
Procedure: Solvent: 14 parts by weight of dimethylformamide Emulsifier: alkylaryl polyglycol ether To produce an appropriate active ingredient formulation, 1 part by weight of active ingredient is dissolved with the stated parts by weight of solvent and made up with water containing an emulsifier concentration of 1000 ppm until the desired concentration is attained. For production of further test concentrations, the mixture is diluted with emulsifier-containing water. If addition of ammonium salts or/and penetrants is required, these are each added to the preparation solution in a concentration of 1000 ppm. Bell pepper plants (Capsicum annuum) severely infested by the green peach aphid (Myzus persicae) are treated by spraying with the active ingredient formulation in the desired concentration. After the desired time, the kill in % is determined. 100% means that all animals have been killed; 0% means that no animals have been killed.

[10] = test system: Phaedon cochleariae; assay: Phaedon cochleariae spray test (PHAECO), contrastive examples; details: 168 h, 100 g/ha, 7 dat, read-out: % efficacy
Procedure: Solvent: 78.0 parts by weight of acetone • • 1.5 parts by weight of dimethylformamide Emulsifier: alkylaryl polyglycol ether To produce an appropriate active ingredient formulation, 1 part by weight of active ingredient is dissolved with the stated parts by weight of solvent and made up with water containing an emulsifier concentration of 1000 ppm until the desired concentration is attained. For production of further test concentrations, the mixture is diluted with emulsifier-containing water. Discs of chinese cabbage leaves (Brassica pekinensis) are sprayed with an active ingredient formulation of the desired concentration and, after drying, populated with larvae of the mustard beetle (Phaedon cochleariae). After the desired time, the efficacy in % is determined. 100% means that all beetle larvae have been killed; 0% means that no beetle larvae have been killed.

SMILES | pest or weed control at 4 ppm [2] [%] | Emax at 4 g/ha [5] [%] | Emax at 0.8 ppm [7] [%] | also measured
CN(C)C(=O)Nc1ccc(S(C)(=O)=O)c(-c2nc3cc(C(F)(F)F)nnc3n2C)n1 [Example I-4] | 100 | – | – | pest or weed control at 100 ppm [1]: 100%
CNC(=O)Nc1ccc(S(C)(=O)=O)c(-c2nc3cc(C(F)(F)F)nnc3n2C)n1 [Example I-5] | 100 | – | – | pest or weed control at 100 ppm [1]: 100%; pest or weed control at 100 g/ha [3]: 90%; pest or weed control at 5 µg/cm2, 500 g/ha [4]: 100%; pest or weed control at 0.8 ppm [2]: 100%
CCS(=O)(=O)c1ccc(NC(=O)NC)nc1-c1nc2cc(C(F)(F)C(F)(F)F)nnc2n1C [Example I-7] | – | 100 | – | –
CCS(=O)(=O)c1ccc(N(C)C(=O)NC)nc1-c1nc2cc(C(F)(F)C(F)(F)F)nnc2n1C [Example I-8] | 100 | – | 99 | Emax at 4 g/ha [6]: 50%
CCS(=O)(=O)c1ccc(NC(=O)N(C)C)nc1-c1nc2cc(C(F)(F)C(F)(F)F)nnc2n1C [Example I-9] | 100 | – | 98 | –
CNC(=O)Nc1ccc(S(C)(=O)=O)c(-c2nc3cc(C(F)(F)C(F)(F)F)nnc3n2C)n1 [Example I-10] | 100 | – | – | Emax at 0.8 ppm ([8]; 168 h, 7 dat): 95%; Emax at 0.8 ppm ([8]; 336 h, 14 dat): 80%
CN(C)C(=O)Nc1ccc(S(C)(=O)=O)c(-c2nc3cc(C(F)(F)C(F)(F)F)nnc3n2C)n1 [Example I-11] | 100 | – | 95 | Emax at 0.8 ppm ([8]; 336 h, 14 dat): 85%
CCS(=O)(=O)c1ccc(N(C)C(=O)N(C)C)nc1-c1nc2cc(C(F)(F)F)nnc2n1C [Example I-12] | 100 | 90 | – | pest or weed control at 20 g/ha ([3]; application rate 20 g/ha): 90%; pest or weed control at 100 g/ha [3]: 100%; Emax at 0.8 ppm [9]: 90%; pest or weed control at 0.8 ppm [2]: 100%
CCS(=O)(=O)c1ccc(N(C)C(=O)N(C)C)nc1-c1nc2cc(C(F)(F)C(F)(F)F)nnc2n1C [Example I-13] | 100 | 90 | 95 | –
CCNC(=O)Nc1ccc(S(=O)(=O)CC)c(-c2nc3cc(C(F)(F)F)nnc3n2C)n1 [Prior art according to WO2017/025419, reference compound] | – | 0 | – | Emax at 4 g/ha [6]: 0%; Emax at 0.8 ppm [9]: 0%; Emax at 100 g/ha [10]: 50%
